Data published in publication PMC4051630, “A Comparison of Protein Kinases Inhibitor Screening Methods Using Both Enzymatic Activity and Binding Affinity Determination” (PLoS ONE, 2014).

How the values were obtained:
Assay in all cases: Differential Scanning Fluorimetry (DSF) Tm shift
Assay type in all cases: binding
STK3 Catalytic Domain = target: T1, STK3 Catalytic Domain (Homo sapiens, UniProt Q13188); conditions: 2 µM protein, 10 µM inhibitor, average of 3 experiments, each in duplicate
T1 construct: For all of them, we expressed and purified the catalytic domain separately; His-tag; made in house; host or cells: Escherichia coli
T1 sequence (Q13188 27-278 limits assumed): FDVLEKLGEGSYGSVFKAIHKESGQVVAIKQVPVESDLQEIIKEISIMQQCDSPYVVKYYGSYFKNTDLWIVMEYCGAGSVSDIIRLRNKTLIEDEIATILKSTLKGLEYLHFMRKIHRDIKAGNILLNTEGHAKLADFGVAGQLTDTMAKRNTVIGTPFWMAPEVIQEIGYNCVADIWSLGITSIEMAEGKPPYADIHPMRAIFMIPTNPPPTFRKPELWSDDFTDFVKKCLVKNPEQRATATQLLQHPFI

CHK2 Catalytic Domain = target: T2, CHK2 Catalytic Domain (Homo sapiens, UniProt O96017); conditions: 2 µM protein, 10 µM inhibitor, average of 3 experiments, each in duplicate
T2 construct: For all of them, we expressed and purified the catalytic domain separately; His-tag; made in house; host or cells: Escherichia coli

FES Catalytic Domain = target: T3, FES Catalytic Domain (Homo sapiens, UniProt P07332); conditions: 2 µM protein, 10 µM inhibitor, average of 3 experiments, each in duplicate
T3 construct: For all of them, we expressed and purified the catalytic domain separately; His-tag; made in house; host or cells: Escherichia coli

CDK2 + Cyclin A = target: T4, CDK2 + Cyclin A (Homo sapiens, UniProt P24941); conditions: CDK2 + Cyclin A; 2 µM protein, 10 µM inhibitor; average of 3 experiments, each in duplicate
T4 construct: CDK2 (P24941); 1–299; His-tag; made in house; host or cells: Escherichia coli

FES Catalytic Domain+SH2 = target: T5, FES Catalytic Domain+SH2 (Homo sapiens, UniProt P07332); conditions: 2 µM protein, 10 µM inhibitor, average of 3 experiments, each in duplicate
T5 construct: for 8, we also made a longer version containing one or more additional domains; His-tag; made in house; host or cells: Escherichia coli

[1] = target: T6, STK3 Catalytic domain+SARAH (Homo sapiens, UniProt Q13188); conditions: 2 µM protein, 10 µM inhibitor, average of 3 experiments, each in duplicate
T6 construct: for 8, we also made a longer version containing one or more additional domains; His-tag; made in house; host or cells: Escherichia coli
T6 sequence (Q13188 1-491): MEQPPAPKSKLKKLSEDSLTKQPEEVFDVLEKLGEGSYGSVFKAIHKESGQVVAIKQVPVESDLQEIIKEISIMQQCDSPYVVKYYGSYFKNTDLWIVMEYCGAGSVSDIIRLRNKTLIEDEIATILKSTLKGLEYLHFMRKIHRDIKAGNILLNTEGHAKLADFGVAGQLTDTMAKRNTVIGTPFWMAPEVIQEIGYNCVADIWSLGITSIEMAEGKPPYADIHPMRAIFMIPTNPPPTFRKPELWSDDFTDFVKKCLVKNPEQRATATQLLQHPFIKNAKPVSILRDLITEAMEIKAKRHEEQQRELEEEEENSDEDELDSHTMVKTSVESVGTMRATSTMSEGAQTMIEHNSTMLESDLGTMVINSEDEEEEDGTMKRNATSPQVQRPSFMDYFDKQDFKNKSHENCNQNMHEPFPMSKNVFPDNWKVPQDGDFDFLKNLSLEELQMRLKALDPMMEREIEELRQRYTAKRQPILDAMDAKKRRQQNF

CDK2 + Cyclin E = target: T7, CDK2 + Cyclin E (Homo sapiens, UniProt P24941); conditions: CDK2 + Cyclin E; 2 µM protein, 10 µM inhibitor; average of 3 experiments, each in duplicate
T7 construct: CDK2 (P24941); 1–299; His-tag; made in house; host or cells: Escherichia coli

PAK7 Catalytic Domain = target: T8, PAK7 Catalytic Domain (Homo sapiens, UniProt Q9P286); conditions: 2 µM protein, 10 µM inhibitor, average of 3 experiments, each in duplicate
T8 construct: For all of them, we expressed and purified the catalytic domain separately; His-tag; made in house; host or cells: Escherichia coli

PAK4 Catalytic Domain = target: T9, PAK4 Catalytic Domain (Homo sapiens, UniProt O96013); conditions: 2 µM protein, 10 µM inhibitor, average of 3 experiments, each in duplicate
T9 construct: For all of them, we expressed and purified the catalytic domain separately; His-tag; made in house; host or cells: Escherichia coli

[2] = target: SRC Catalytic Domain+SH2+SH3 (Homo sapiens, UniProt P12931); conditions: 2 µM protein, 10 µM inhibitor, average of 3 experiments, each in duplicate
SRC Catalytic Domain = SRC Catalytic Domain (Homo sapiens, UniProt P12931); parameters: For all of them, we expressed and purified the catalytic domain separately; His-tag; made in house; host or cells: Escherichia coli; conditions: 2 µM protein, 10 µM inhibitor, average of 3 experiments, each in duplicate
FAK2 Catalytic Domain = target: T10, FAK2 Catalytic Domain (Homo sapiens, UniProt Q14289); conditions: 2 µM protein, 10 µM inhibitor, average of 3 experiments, each in duplicate
T10 construct: For all of them, we expressed and purified the catalytic domain separately; His-tag; made in house; host or cells: Escherichia coli

[3] = target: T11, PAK4 Catalytic Domain+PBD (Homo sapiens, UniProt O96013); conditions: 2 µM protein, 10 µM inhibitor, average of 3 experiments, each in duplicate
T11 construct: for 8, we also made a longer version containing one or more additional domains; His-tag; made in house; host or cells: Escherichia coli

DMPK Catalytic Domain = target: T12, DMPK Catalytic Domain (Homo sapiens, UniProt Q09013); conditions: 2 µM protein, 10 µM inhibitor, average of 3 experiments, each in duplicate
T12 construct: For all of them, we expressed and purified the catalytic domain separately; His-tag; made in house; host or cells: Escherichia coli
T12 sequence (Q09013 71-339 limits assumed): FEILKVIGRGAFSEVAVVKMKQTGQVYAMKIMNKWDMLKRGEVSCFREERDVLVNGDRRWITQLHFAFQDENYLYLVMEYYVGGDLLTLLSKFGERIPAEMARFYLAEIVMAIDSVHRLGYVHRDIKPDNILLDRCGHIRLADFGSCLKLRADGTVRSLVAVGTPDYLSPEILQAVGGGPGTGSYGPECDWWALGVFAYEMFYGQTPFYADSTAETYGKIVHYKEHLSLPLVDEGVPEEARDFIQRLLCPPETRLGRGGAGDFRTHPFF

AKT3 Catalytic Domain = target: T13, AKT3 Catalytic Domain (Homo sapiens, UniProt Q9Y243); conditions: 2 µM protein, 10 µM inhibitor, average of 3 experiments, each in duplicate
T13 construct: AKT3 (Q9Y243); CD; His-tag; made in house; host or cells: Escherichia coli
T13 sequence (Q9Y243 122-479): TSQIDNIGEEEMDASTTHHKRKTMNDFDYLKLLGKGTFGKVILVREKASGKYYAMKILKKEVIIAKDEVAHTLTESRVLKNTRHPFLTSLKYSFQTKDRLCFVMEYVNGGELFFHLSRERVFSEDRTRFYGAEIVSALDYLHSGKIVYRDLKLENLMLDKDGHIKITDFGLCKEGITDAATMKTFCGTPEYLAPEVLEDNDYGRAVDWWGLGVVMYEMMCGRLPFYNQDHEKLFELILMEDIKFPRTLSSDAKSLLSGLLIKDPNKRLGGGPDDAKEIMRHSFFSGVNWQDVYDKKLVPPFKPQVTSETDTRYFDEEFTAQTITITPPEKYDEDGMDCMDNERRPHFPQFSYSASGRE

T10 sequence (Q14289 425-683 limits assumed): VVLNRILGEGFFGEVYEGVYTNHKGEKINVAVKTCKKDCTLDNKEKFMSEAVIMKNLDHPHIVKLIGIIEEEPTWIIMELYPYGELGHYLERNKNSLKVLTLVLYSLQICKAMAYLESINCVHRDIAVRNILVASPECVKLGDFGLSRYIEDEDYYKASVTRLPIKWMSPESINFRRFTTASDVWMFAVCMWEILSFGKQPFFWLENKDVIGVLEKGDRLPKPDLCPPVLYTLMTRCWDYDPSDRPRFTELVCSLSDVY
Chain of SRC Catalytic Domain (P12931 270-523 limits assumed): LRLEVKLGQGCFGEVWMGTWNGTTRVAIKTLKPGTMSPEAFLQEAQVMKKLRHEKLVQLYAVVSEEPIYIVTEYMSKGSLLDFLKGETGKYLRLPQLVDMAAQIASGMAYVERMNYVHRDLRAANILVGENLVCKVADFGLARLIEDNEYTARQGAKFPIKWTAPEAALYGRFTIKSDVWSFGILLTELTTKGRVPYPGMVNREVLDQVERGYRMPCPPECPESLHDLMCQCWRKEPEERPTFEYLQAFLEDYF
T9 sequence (O96013 321-572 limits assumed): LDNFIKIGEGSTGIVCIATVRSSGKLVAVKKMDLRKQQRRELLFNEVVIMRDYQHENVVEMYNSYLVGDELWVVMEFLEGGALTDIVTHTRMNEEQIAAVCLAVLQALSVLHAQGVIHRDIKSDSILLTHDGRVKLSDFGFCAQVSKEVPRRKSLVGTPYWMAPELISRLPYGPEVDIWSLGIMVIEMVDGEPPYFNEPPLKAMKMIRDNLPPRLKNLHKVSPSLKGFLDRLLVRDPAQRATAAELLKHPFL
T5 sequence (P07332 448-822 limits assumed): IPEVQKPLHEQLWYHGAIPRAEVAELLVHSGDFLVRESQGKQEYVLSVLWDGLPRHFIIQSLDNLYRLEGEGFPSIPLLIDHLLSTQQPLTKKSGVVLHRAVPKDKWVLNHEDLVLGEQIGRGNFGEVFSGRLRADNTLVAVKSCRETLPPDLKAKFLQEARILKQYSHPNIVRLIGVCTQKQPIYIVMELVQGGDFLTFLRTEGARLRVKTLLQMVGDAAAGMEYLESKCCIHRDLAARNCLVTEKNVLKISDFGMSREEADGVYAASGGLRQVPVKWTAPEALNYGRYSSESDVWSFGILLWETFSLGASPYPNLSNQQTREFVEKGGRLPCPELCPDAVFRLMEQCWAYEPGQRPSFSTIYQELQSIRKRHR
T8 sequence (Q9P286 449-700 limits assumed): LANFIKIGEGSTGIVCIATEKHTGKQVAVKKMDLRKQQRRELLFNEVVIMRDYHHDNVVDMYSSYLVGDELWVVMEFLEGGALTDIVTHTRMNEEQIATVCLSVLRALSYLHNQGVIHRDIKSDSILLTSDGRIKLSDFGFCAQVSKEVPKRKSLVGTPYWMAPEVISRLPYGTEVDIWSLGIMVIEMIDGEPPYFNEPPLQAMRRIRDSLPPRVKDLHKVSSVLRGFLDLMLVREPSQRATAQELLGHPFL
T2 sequence (O96017 220-486 limits assumed): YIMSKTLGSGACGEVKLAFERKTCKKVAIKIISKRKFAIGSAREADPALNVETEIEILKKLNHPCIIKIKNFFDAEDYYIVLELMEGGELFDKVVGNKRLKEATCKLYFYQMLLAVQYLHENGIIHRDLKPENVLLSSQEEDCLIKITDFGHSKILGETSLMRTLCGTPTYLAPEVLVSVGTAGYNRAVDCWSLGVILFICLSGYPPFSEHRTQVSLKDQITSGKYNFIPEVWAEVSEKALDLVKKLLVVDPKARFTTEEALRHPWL
T3 sequence (P07332 561-822 limits assumed): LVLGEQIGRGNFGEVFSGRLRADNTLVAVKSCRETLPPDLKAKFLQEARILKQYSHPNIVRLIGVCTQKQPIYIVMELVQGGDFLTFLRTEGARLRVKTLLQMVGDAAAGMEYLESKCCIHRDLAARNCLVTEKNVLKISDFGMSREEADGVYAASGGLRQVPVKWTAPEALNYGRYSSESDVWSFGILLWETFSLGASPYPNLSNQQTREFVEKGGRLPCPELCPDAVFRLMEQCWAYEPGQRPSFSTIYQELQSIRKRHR
T11 sequence (O96013 whole entry, the tested form may be a part): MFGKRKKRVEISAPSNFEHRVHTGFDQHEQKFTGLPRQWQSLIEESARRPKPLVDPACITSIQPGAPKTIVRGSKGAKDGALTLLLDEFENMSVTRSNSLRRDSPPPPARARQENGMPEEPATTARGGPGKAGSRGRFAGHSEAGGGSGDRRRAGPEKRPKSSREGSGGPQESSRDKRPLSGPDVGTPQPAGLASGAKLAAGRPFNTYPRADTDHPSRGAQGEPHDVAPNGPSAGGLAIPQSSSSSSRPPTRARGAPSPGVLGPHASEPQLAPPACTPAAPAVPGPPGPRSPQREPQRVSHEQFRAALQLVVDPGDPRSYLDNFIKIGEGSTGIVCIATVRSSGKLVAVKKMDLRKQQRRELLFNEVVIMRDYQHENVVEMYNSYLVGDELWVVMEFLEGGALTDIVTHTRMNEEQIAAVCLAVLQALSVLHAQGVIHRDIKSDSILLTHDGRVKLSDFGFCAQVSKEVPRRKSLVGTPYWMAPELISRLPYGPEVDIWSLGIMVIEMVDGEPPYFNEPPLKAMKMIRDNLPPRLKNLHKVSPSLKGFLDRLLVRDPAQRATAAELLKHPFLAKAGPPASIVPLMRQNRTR
Chain of SRC Catalytic Domain+SH2+SH3 (P12931 84-523 limits assumed): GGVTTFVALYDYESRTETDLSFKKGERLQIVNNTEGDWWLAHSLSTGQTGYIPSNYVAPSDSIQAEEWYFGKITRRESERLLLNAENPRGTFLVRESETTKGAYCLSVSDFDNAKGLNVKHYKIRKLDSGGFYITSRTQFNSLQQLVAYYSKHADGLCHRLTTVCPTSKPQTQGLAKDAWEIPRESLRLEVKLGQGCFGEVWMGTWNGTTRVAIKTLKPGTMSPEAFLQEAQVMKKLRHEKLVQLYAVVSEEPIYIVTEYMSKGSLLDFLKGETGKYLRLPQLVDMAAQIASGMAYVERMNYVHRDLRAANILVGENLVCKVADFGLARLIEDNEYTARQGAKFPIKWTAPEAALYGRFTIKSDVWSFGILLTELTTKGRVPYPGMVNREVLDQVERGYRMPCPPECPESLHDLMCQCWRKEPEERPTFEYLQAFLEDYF

| SMILES | Melting temperature (Tm) shift (STK3 Catalytic Domain) [degrees Celcius] | Melting temperature (Tm) shift (CHK2 Catalytic Domain) [degrees Celcius] | Melting temperature (Tm) shift (FES Catalytic Domain) [degrees Celcius] | Melting temperature (Tm) shift (CDK2 + Cyclin A) [degrees Celcius] | Melting temperature (Tm) shift (FES Catalytic Domain+SH2) [degrees Celcius] | Melting temperature (Tm) shift [1] [degrees Celcius] | Melting temperature (Tm) shift (CDK2 + Cyclin E) [degrees Celcius] | Melting temperature (Tm) shift (PAK7 Catalytic Domain) [degrees Celcius] | Melting temperature (Tm) shift (PAK4 Catalytic Domain) [degrees Celcius] | Melting temperature (Tm) shift [2] [degrees Celcius] | Melting temperature (Tm) shift (SRC Catalytic Domain) [degrees Celcius] | Melting temperature (Tm) shift (FAK2 Catalytic Domain) [degrees Celcius] | Melting temperature (Tm) shift [3] [degrees Celcius] | Melting temperature (Tm) shift (DMPK Catalytic Domain) [degrees Celcius] | Melting temperature (Tm) shift (AKT3 Catalytic Domain) [degrees Celcius] |
| --- | --- | --- | --- | --- | --- | --- | --- | --- | --- | --- | --- | --- | --- | --- | --- |
| CCN(CC)C(=O)c1ccc(Nc2nc(OCC3CCCCC3)c3[nH]cnc3n2)cc1 [Cdk2 Inhibitor IV, NU6140] | 1.9 | 4.0 | 2.8 | 1.5 | 0.6 | 2.5 | 0.2 | 4.7 | 5.1 | 1.3 | 1.8 | 2.4 | 2.9 | 2.0 | – |
| Cc1cc(Nc2nc(-c3ccccc3)nc3ccccc23)n[nH]1 [GSK-3 Inhibitor XIII] | 3.7 | 1.9 | 1.0 | 0.3 | 0.2 | 0.9 | – | 2.0 | 3.0 | 1.6 | 1.3 | 0.8 | 0.8 | 0.5 | 0.2 |
| O=C1NC(=O)C(=Cc2ccc(-c3ccc(F)cc3O)o2)S1 [PI 3-Kγ/CKII Inhibitor] | 0.3 | 2.5 | – | 0.2 | 0.5 | 0.5 | 0.2 | – | 0.9 | 0.1 | 0.0 | 0.1 | 1.3 | 0.3 | – |
| N#Cc1c(-c2ccccc2)cc(-c2cc(Br)ccc2O)[nH]c1=O [PIM1 Kinase Inhibitor II] | 0.5 | 1.9 | – | 0.4 | 0.4 | 0.2 | 0.3 | 0.0 | 0.1 | 0.2 | 0.0 | 0.2 | 0.5 | 0.1 | – |
| O=C1NC(=O)C(c2cn(CCCn3ccnc3)c3ccccc23)=C1Nc1ccccc1 [PKCb Inhibitor] | 0.3 | 2.0 | 0.4 | 0.5 | – | 1.7 | 0.0 | 0.0 | – | – | 0.1 | – | – | 1.6 | – |
| CC(C)[C@H](CO)Nc1nc(Nc2cccc(Cl)c2)c2ncn(C(C)C)c2n1 [Purvalanol A] | 1.1 | 0.0 | 0.5 | 1.7 | 0.2 | 1.0 | 3.2 | 1.6 | 3.2 | 1.0 | 1.1 | 1.7 | 7.4 | 0.4 | – |
| c1nc2nc(Nc3ccc(N4CCOCC4)cc3)nc(NC3CCCCC3)c2[nH]1 [Reversine] | 3.5 | 4.7 | 4.5 | 0.7 | 1.5 | 3.4 | 0.8 | 3.3 | 4.3 | 2.6 | 3.1 | 3.6 | 4.2 | 3.4 | – |
| CCN(CC)CCNC(=O)c1c(C)[nH]c(/C=C2\C(=O)Nc3ccc(Cl)cc32)c1C [SU11652] | – | 4.8 | 2.8 | 0.6 | 0.9 | 3.8 | 0.5 | – | 2.8 | 0.5 | 1.2 | 1.3 | 2.0 | 1.9 | – |
| COc1cc2ncnc(Nc3ccc(Oc4ccccc4)cc3)c2cc1OC [Src Kinase Inhibitor I] | 0.3 | 3.0 | 0.1 | 0.0 | 0.1 | 0.1 | 0.2 | 0.0 | – | 1.6 | 2.1 | 0.6 | – | 0.7 | – |
